Laboratory results as given in patent US9045501B2, “5-HT3 receptor modulators, methods of making, and use thereof” (Albany Molecular Research, Inc., priority 2009, dated 2015).

Key:
human 5-HT3 receptor = human 5-HT3 receptor (Homo sapiens (Human), UniProt P46098); experiment: Radioligand binding assay (SPA format), affinity for the human 5-HT3 receptor; details: [9-methyl-3H]BRL-43694 10 nM, human 5-HT3 receptor membranes, Cheng Prusoff; read-out: h5-HT3A Ki
Experimental: The relative affinity of the various compounds for the human 5-HT3 receptor was measured in a radioligand binding assay, using a scintillation proximity assay (SPA) format. Test compounds were dissolved to 10 mM in 100% DMSO, then serially diluted at 10× assay concentrations in 100% DMSO in 96-well polypropylene plates and further diluted to 4× assay concentrations with the assay buffer. Samples were incubated in 50 mM Tris-HCl, pH 7.5, 3 mM MgCl2, 1 mM EDTA and 10% DMSO with 10 nM [9-methyl-^3H]BRL-43694 (Perkin Elmer), 3 μg of human 5-HT3 receptor membranes (Perkin Elmer) and 0.5 mg/mL SPA beads (WGA PVT, Amersham Biosciences) in a final volume of 0.2 mL. Binding reactions were set up in wells of PicoPlates-96 (Perkin Elmer) by adding consecutively 50 μL of each competing compound or buffer, SPA beads, the radioligand and 5-HT3 receptor membranes. After an overnight incubation at room temperature on a Nutator mixer, plates were centrifuged for 15 min at 1,500 rpm, followed by incubation in the dark for 30 min. Radioactivity was counted in the TopCount microplate counter (Perkin Elmer) for 5 min. Total binding control contained compound dilution buffer only; nonspecific binding was determined in the presence of 30 μM MDL-72222. Specific binding was determined by subtracting nonspecific binding from total binding. All experiments were performed in duplicate using ten concentrations of competing ligand, with ondansetron included as a control in every run. IC50 values were determined from specific binding data using XLfit4.1 curve fitting software from IDBS Ltd. The inhibition constant (Ki) was calculated from the Cheng Prusoff equation: (Ki=IC50/(1+(L/KD)), where L=concentration of radioligand in the assay, and KD=affinity of the radioligand for the receptor.

h5-HT3A receptor = h5-HT3A receptor (Homo sapiens (Human), UniProt P46098); experiment: Agonist activity at recombinant human 5-HT3A receptors, [Ca2+]i in HEK293 cells; type: cell-based; details: at 1 μM, normalized to the response of 5-HT (5-HT response = 100% at 3 μM); NR = no response
h5-HT3A receptor, sequence (P46098 24-478): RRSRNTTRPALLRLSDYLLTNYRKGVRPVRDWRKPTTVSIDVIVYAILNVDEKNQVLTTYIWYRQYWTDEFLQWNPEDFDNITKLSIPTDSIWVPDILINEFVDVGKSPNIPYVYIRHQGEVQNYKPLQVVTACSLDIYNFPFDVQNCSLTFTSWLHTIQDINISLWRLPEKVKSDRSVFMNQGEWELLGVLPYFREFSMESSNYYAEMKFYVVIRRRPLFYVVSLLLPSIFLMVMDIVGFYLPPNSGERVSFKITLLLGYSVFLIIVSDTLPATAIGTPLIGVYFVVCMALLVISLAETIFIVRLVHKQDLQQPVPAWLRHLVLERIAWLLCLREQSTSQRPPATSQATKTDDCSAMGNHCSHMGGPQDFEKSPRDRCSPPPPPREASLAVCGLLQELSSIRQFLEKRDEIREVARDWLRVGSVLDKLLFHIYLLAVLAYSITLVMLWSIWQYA
Experimental: Human embryonic kidney (HEK293) cells expressing the h5-HT3A receptor subunit were seeded directly into poly-D-lysine coated, black-walled, clear bottomed, 96 well plates with approximately 1×10^5 cells per well. After 48 hrs incubation in DMEM growth media (100 μL), cells were washed twice (each 200 μL) in Hank's balanced salt solution (Invitrogen) before incubation (1 hr) with Fluo-4 acetoxymethyl (AM) ester (100 μL, 2.5 μM; Molecular Probes). Cells were washed twice (each 200 μL) in Hank's balanced salt solution and incubated for a further 30 min in Hank's balanced salt solution (100 μL) prior to assay (25° C.). Alteration in [Ca^2+]i was measured (relative fluorescence units [RFU]) using a Flexstation (excitation 488 nm and emission 515 nm; frequency of recording 3 sec). After recording for at least 80 sec, vehicle (Hank's balanced salt solution) or drug was automatically administered to the well (50 μL). Baseline was calculated from the 5 data points immediately prior to the first drug administration and the maximum response was that achieved over the 240 sec following drug administration. In all experiments the muscarinic receptor agonist carbachol (1 mM) was added 240 sec after the test drug administration.

5-HT3 receptors = 5-HT3 receptors (Mus musculus (Mouse), UniProt P23979); experiment: von Bezold-Jarisch model in vivo: inhibition of 5-HT induced bradycardia; details: 3 mg/kg oral, 60 min before 5-HT 0.1 mg/kg IV, anesthetized male ICR mice; highest oral dose tested
5-HT3 receptors, sequence (P23979 24-489): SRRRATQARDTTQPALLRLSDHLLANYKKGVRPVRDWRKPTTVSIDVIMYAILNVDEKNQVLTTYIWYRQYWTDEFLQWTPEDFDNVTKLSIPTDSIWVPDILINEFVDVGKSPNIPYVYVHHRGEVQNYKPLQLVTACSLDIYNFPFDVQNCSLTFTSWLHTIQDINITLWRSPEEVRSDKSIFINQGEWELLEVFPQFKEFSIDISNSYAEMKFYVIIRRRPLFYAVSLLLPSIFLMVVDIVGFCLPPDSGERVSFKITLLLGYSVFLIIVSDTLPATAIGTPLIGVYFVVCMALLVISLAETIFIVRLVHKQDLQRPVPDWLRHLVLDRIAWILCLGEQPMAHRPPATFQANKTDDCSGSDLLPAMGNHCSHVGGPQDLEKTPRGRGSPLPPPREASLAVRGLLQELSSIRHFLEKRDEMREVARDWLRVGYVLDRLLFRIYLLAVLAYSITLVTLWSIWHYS
Experimental: This is a well characterized and widely used model to assess 5-HT3 receptor function in vivo (King et al., 5-Hydroxtryptamine-3 Receptor Antagonists, CRC Press, pp. 74-75 (1993), which is hereby incorporated by reference in its entirety). Certain compounds (Table 1) were evaluated for their ability to inhibit serotonin induced bradycardia in vivo in the mouse (Saxena et al., Arch. Int. Pharmacodyn., 277:235-252 (1985), which is hereby incorporated by reference in its entirety). Test substances and vehicle [2% Tween 80] were each administered orally to a group of 5 male ICR mice each weighing 24±2 g. A dosing volume of 10 mL/kg was used. Sixty minutes later, 5-HT (0.1 mg/kg IV)-induced bradycardia was recorded in urethane (2250 mg/kg IP, given 10 minutes before 5-HT)-anesthetized animals.

human 5-HT3 receptor, sequence (P46098 24-478): as the sequence (P46098 24-478) above

Row | SMILES | Ki (human 5-HT3 receptor) [nM] | HEK293 h5-HT3A % agonist response (h5-HT3A receptor) [%] | Inhibition of 5-HT Induced Bradycardia in Mice (5-HT3 receptors) [% @ 3 mg/kg]
1 | O=C1c2cccc3[nH]c(=O)n(c23)CCN1[C@@H]1CN2CCC1CC2 [Example 25, 6-((S)-quinuclidin-3-yl)-5,6-dihydroimidazo[4,5,1-jk][1,4]benzodiazepine-2,7(1H, 4H)-dione] | 7 | 83 | 
2 | O=C1c2cccc3ccn(c23)CCN1[C@@H]1CN2CCC1CC2 [Example 2, (S)-2-(quinuclidin-3-yl)-3,4-dihydro-[1,4]diazepino[6,7,1-hi]indol-1(2H)-one] | 4 | 7 | 
3 | Cc1cn2c3c(cccc13)C(=O)N([C@@H]1CN3CCC1CC3)CC2 [Example 3, (S)-7-methyl-2-(quinuclidin-3-yl)-3,4-dihydro-[1,4]diazepino[6,7,1-hi]indol-1(2H)-one] | 5 | 13 | 
4 | O=C1c2cccc3[nH]nc(c23)CN1CC12CCN(CC1)CC2 [Example 29, 4-(quinuclidin-4-ylmethyl)-3,4-dihydropyrazolo[3,4,5-de]isoquinolin-5(1H)-one] | 2 | 1 | 87
5 | O=C1c2cccc3cnn(c23)CCN1[C@@H]1CN2CCC1CC2 [Example 7, (S)-7-(quinuclidin-3-yl)-8,9-dihydro-[1,4]diazepino[6,7,1-hi]indazol-6(7H)-one] | 8 | 19 | 77
